Values quoted from earlier work as cited in US10925925B2, “Therapy of atherosclerosis, primary biliary cirrhosis and NRLP3 inflammasome-associated disease by HTCP inhibitors” (MYR GmbH, priority 2017, dated 2021).
Like-named read-outs stand apart in the source and are kept apart here.

What was measured:
[1] = tested on: patients with PBC; details: PBC patients treated with UDCA
[2] = tested on: patients with PBC; details: month 12, placebo arm 10%

Structure (SMILES) | patients who do not achieve adequate biochemical response [1] | patients achieving the primary endpoint (predominantly reduction in ALP) ([2]; OCA 10 mg arm) | patients achieving the primary endpoint (predominantly reduction in ALP) ([2]; OCA titration arm)
C[C@H](CCC(=O)O)[C@H]1CC[C@H]2[C@@H]3[C@@H](O)C[C@@H]4C[C@H](O)CC[C@]4(C)[C@H]3CC[C@]12C [UDCA, ursodeoxicholic acid] | about 40% |  | 
CC[C@H]1[C@@H](O)[C@@H]2[C@H](CC[C@]3(C)[C@@H]([C@H](C)CCC(=O)O)CC[C@@H]23)[C@@]2(C)CC[C@@H](O)C[C@@H]12 [OCA, obeticholic acide] |  | 47% | 46%
